“And” between values parts separate entries of the source, which are not always exact repeats. Identical values can stand only once. Like-named read-outs stand apart in the source and are kept apart here.
Key:
MMP-14 = settings: previously reported; cited from earlier work
[1] = molecular target: T1, APMA activated MMP-9 (MMP-9(A)) (Homo sapiens, UniProt P14780); experiment: Enzyme inhibition kinetics, fluorogenic substrate ES001; assay type: biochemical; settings: for Vi/V0 AVG: APMA activated MMP-9, average
T1 construct: made in house; host or cells: Sf9 and High Five insect cells
Method in brief: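 Recombinant full-length proMMP-9 expressed in insect cells was auto-activated with APMA and titrated with galardin. Activity at 0.05 nM enzyme was measured using 4.0 µM fluorogenic substrate ES001 in 100 µL 0.1 M Hepes pH 7.5 containing 10 mM CaCl2, 0.005% Brij-35 and 1.0% DMSO. Initial rates were followed at 37°C (excitation 320 nm, emission 405 nm) relative to inhibitor-free controls.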

[2] = molecular target: T2, Mag-Trypsin activated MMP-9 (MMP-9(MT)) (Homo sapiens, UniProt P14780); experiment: as above; assay type: biochemical; settings: for remaining activity at 100 µM: 100 µM inhibitor; for Vi/V0 avg: Trypsin activated MMP-9, average
T2 construct: made in house; host or cells: Sf9 and High Five insect cells
T2 sequence (P14780 107-707 limits assumed): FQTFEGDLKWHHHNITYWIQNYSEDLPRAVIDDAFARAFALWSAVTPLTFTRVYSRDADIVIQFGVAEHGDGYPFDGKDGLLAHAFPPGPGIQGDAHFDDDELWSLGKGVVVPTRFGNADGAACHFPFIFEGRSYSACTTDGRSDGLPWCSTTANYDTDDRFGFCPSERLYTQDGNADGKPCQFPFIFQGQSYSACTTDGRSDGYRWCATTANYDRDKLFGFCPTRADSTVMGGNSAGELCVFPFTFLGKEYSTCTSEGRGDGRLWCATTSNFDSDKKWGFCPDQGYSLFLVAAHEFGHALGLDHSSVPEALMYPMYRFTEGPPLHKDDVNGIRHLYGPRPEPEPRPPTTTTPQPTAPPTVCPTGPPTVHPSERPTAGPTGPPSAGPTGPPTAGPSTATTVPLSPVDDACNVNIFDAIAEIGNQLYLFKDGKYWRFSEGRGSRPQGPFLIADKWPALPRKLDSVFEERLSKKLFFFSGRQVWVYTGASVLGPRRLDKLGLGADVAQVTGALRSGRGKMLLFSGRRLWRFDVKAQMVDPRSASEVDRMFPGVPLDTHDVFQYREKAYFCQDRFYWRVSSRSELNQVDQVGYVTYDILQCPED

T1 sequence (P14780 107-707 limits assumed): as above

For `NC(=O)C(CCC(=O)O)NC(=O)C(CCC(=O)O)NC(=O)C(Cc1cc(-c2ccc(-c3cccc(Cl)c3)cc2)no1)CP(=O)(O)c1ccc(Br)cc1` (stereo not drawn) [H-1], the Ki (MMP-14) is given as 0.14 µM, the Ki [1] is given as 19 ± 3 µM and the remaining activity at 100 µM ([1]; 0.25 h, read-out: vi/v0 avg, rMMP-9 (APMA activated), 100 µM inhibitor, 15 min pre incubation) is given as 25.7%. The remaining activity at 100 µM ([1]; 0.5 h, read-out: vi/v0 avg, rMMP-9 (APMA activated), 100 µM inhibitor, 30 min pre incubation) was 25.3%, the “Vi/V0 AVG” value ([1]; [H1] 10 μM) was 0.7315 and the “Vi/V0 AVG” value ([1]; [H1] 20 μM) was 0.5955. For the same compound, the “Vi/V0 AVG” value ([1]; [H1] 30 μM) was 0.5816, the “Vi/V0 AVG” value ([1]; [H1] 40 μM) was 0.5052 and the “Vi/V0 AVG” value ([1]; [H1] 50 μM) was 0.4481. The “Vi/V0 AVG” value ([1]; [H1] 60 μM) was 0.4125, the “Vi/V0 AVG” value ([1]; [H1] 70 μM) was 0.3558 and the “Vi/V0 AVG” value ([1]; [H1] 80 μM) was 0.3478. The “Vi/V0 AVG” value ([1]; [H1] 90 μM) was 0.3201, the “Vi/V0 AVG” value ([1]; [H1] 100 μM) was 0.265 and the “inhibitory effect on enzymatic activity” value ([1]; MMP-9(A), 100 μM compound, in words) was “strong inhibition”. For the same compound, the “vi/v0 Av (bar diagram figure 7)” value ([1]; rMMP-9 (APMA activated), inhibitor 100 μM, average over 0, 15, 30 min preincubation) was 0.2424, the “vi/v0 (relative enzyme activity with inhibitor), single determinations” value ([1]; rMMP-9 (APMA activated), inhibitor 100 μM, preincubation 0 min) was 0.1639 and 0.167 and 0.1831 and 0.1727 and 0.3076 and 0.251 and 0.276 and the remaining activity at 20 µM ([1]; read-out: Vi/V0, APMA activated MMP-9, [H1] 20 μM, replicate vi over each of 4 controls) was 59.1%. For the same compound, the remaining activity at 40 µM ([1]; read-out: Vi/V0, APMA activated MMP-9, [H1] 40 μM, replicate vi over each of 4 controls) was 41.9%, the remaining activity at 50 µM ([1]; read-out: Vi/V0, APMA activated MMP-9, [H1] 50 μM, replicate vi over each of 4 controls) was 41.4% and the remaining activity at 60 µM ([1]; read-out: Vi/V0, APMA activated MMP-9, [H1] 60 μM, replicate vi over each of 4 controls) was 36.8%. It also gave a remaining activity at 70 µM ([1]; read-out: Vi/V0, APMA activated MMP-9, [H1] 70 μM, replicate vi over each of 4 controls) of 33.5%, a remaining activity at 80 µM ([1]; read-out: Vi/V0, APMA activated MMP-9, [H1] 80 μM, replicate vi over each of 4 controls) of 32.6% and a remaining activity at 90 µM ([1]; read-out: Vi/V0, APMA activated MMP-9, [H1] 90 μM, replicate vi over each of 4 controls) of 27.8%. The remaining activity at 100 µM ([1]; read-out: Vi/V0, APMA activated MMP-9, [H1] 100 μM, replicate vi over each of 4 controls) was 23.6%, the remaining activity at 100 µM ([1]; read-out: vi/v0 (single replicate), rMMP-9 (APMA activated), 100 µM inhibitor, no preincubation) was 16.4% and the remaining activity at 100 µM ([1]; read-out: vi/v0 avg, rMMP-9 (APMA activated), 100 µM inhibitor, no preincubation) was 21.7%. The Ki [2] was 30 ± 4 µM, the remaining activity at 100 µM ([2]; 0.25 h, read-out: vi/v0 (single replicate), rMMP-9 (Mag-trypsin activated), 15 min pre incubation) was 38.1% and the remaining activity at 100 µM ([2]; 0.25 h, read-out: vi/v0 avg, rMMP-9 (Mag-trypsin activated), 15 min pre incubation) was 47.9%. The remaining activity at 100 µM ([2]; 0.5 h, read-out: vi/v0 (single replicate), rMMP-9 (Mag-trypsin activated), 30 min pre incubation) was 47.4%, the remaining activity at 100 µM ([2]; 0.5 h, read-out: vi/v0 avg, rMMP-9 (Mag-trypsin activated), 30 min pre incubation) was 47.5% and the “inhibitory effect on enzymatic activity” value ([2]; MMP-9(MT), 100 μM compound, in words) was “strong inhibition”. For the same compound, the Vi/V0 avg ([2]; [H1] 10 μM) was 0.823, the Vi/V0 avg ([2]; [H1] 20 μM) was 0.766 and the Vi/V0 avg ([2]; [H1] 30 μM) was 0.6506. The Vi/V0 avg ([2]; [H1] 40 μM) was 0.6729, the Vi/V0 avg ([2]; [H1] 50 μM) was 0.6218 and the Vi/V0 avg ([2]; [H1] 60 μM) was 0.5683. It also gave a Vi/V0 avg ([2]; [H1] 70 μM) of 0.5353, a Vi/V0 avg ([2]; [H1] 80 μM) of 0.5363 and a Vi/V0 avg ([2]; [H1] 90 μM) of 0.4452. The Vi/V0 avg ([2]; [H1] 100 μM) was 0.4212, the “vi/v0 Av (bar diagram figure 7)” value ([2]; rMMP-9 (Mag-trypsin activated), inhibitor 100 μM, average over 0, 15, 30 min preincubation) was 0.4755 and the “vi/v0 (relative enzyme activity with inhibitor), single determinations” value ([2]; rMMP-9 (Mag-trypsin activated), inhibitor 100 μM, preincubation 0 min) was 0.4571 and 0.4536 and 0.4887 and 0.489. For the same compound, the “vi/v0 (relative enzyme activity with inhibitor), single determinations” value ([2]; rMMP-9 (Mag-trypsin activated), inhibitor 100 μM, preincubation 15 min) was 0.3806 and 0.5206 and 0.4881 and 0.528, the “vi/v0 (relative enzyme activity with inhibitor), single determinations” value ([2]; rMMP-9 (Mag-trypsin activated), inhibitor 100 μM, preincubation 30 min) was 0.4739 and 0.4997 and 0.4971 and 0.4295 and the remaining activity at 10 µM ([2]; read-out: Vi/V0, Trypsin activated MMP-9, [H1] 10 μM, replicate vi over each of 4 controls) was 76.1%. The remaining activity at 40 µM ([2]; read-out: Vi/V0, Trypsin activated MMP-9, [H1] 40 μM, replicate vi over each of 4 controls) was 63.2%, the remaining activity at 50 µM ([2]; read-out: Vi/V0, Trypsin activated MMP-9, [H1] 50 μM, replicate vi over each of 4 controls) was 58.9% and the remaining activity at 60 µM ([2]; read-out: Vi/V0, Trypsin activated MMP-9, [H1] 60 μM, replicate vi over each of 4 controls) was 52.9%. The remaining activity at 70 µM ([2]; read-out: Vi/V0, Trypsin activated MMP-9, [H1] 70 μM, replicate vi over each of 4 controls) was 49.6%, the remaining activity at 80 µM ([2]; read-out: Vi/V0, Trypsin activated MMP-9, [H1] 80 μM, replicate vi over each of 4 controls) was 51% and the remaining activity at 90 µM ([2]; read-out: Vi/V0, Trypsin activated MMP-9, [H1] 90 μM, replicate vi over each of 4 controls) was 44.2%.
